From patent US20260250290A1 (BRISTOL-MYERS SQUIBB COMPANY, priority 2023, published 2026)

molecular target: T1, full length SGK1 (Homo sapiens, UniProt O00141); assay: SGK1 inhibition Assay A (Caliper LabChip electrophoretic separation of fluorescent peptide substrate and phosphorylated product); format: biochemical; settings: Assay A; 20 μM ATP, 40 min incubation; read-out: SGK1 IC50
T1 construct: 125 μM full length SGK1 (Life Technologies Part #PR7358A); purchased Life Technologies PR7358A
T1 sequence (O00141 1-431): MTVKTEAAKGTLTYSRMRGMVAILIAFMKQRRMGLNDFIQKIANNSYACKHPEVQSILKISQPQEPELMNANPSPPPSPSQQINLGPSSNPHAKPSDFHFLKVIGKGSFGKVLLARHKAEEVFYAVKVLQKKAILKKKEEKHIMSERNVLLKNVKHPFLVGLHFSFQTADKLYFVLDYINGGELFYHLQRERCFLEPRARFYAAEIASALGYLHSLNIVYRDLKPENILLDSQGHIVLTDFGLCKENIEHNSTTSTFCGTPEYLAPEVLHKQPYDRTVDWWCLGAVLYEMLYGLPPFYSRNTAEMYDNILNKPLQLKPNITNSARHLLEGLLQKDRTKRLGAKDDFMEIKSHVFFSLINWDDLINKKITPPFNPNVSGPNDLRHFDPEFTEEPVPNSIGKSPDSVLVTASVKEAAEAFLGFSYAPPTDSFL

Point of comparison: `COC(=O)N1CC=C(c2cc(N3CCC[C@@H](NC(=O)c4sc(C5CC5)cc4OC4CNC4)C3)c3c(N)ncnn23)C1` [Example 388, methyl (R)-3-(4-amino-5-(3-(3-(azetidin-3-yloxy)-5-cyclopropylthiophene-2-carboxamido)piperidin-1-yl)pyrrolo[2,1-f][1,2,4]triazin-7-yl)-2,5-dihydro-1H-pyrrole-1-carboxylate], IC50 3 nM. Against it:
- CC(C)Cn1cc(-c2cc(N3CCC[C@@H](NC(=O)c4[nH]c5ccccc5c4OCCN(C)C)C3)c3c(N)ncnn23)ccc1=O [Example 369, (R)-N-(1-(4-amino-7-(1-isobutyl-6-oxo-1,6-dihydropyridin-3-yl)pyrrolo[2,1-f][1,2,4]triazin-5-yl)piperidin-3-yl)-3-(2-(dimethylamino)ethoxy)-1H-indole-2-carboxamide] — 65-fold higher, 196 nM
- CC(=O)N1CC=C(c2cc(N3CCC[C@@H](NC(=O)c4sc(C5CC5)cc4OCCN(C)C)C3)c3c(N)ncnn23)C1 [Example 370, (R)—N-(1-(7-(1-acetyl-2,5-dihydro-1H-pyrrol-3-yl)-4-aminopyrrolo[2,1-f][1,2,4]triazin-5-yl)piperidin-3-yl)-5-cyclopropyl-3-(2-(dimethylamino)ethoxy)thiophene-2-carboxamide] — 6-fold higher, 18 nM
- COC(=O)N1CC=C(c2cc(N3CCC[C@@H](NC(=O)c4sc(C5CC5)cc4OCCN(C)C)C3)c3c(N)ncnn23)C1 [Example 371, Methyl (R)-3-(4-amino-5-(3-(5-cyclopropyl-3-(2-(dimethylamino)ethoxy)thiophene-2-carboxamido)piperidin-1-yl)pyrrolo[2,1-f][1,2,4]triazin-7-yl)-2,5-dihydro-1H-pyrrole-1-carboxylate] — 3-fold lower, 1 nM
- CN(C)CCOc1cc(C2CC2)sc1C(=O)N[C@@H]1CCCN(c2cc(-c3ccc(C#N)nc3)n3ncnc(N)c23)C1 [Example 372, (R)-N-(1-(4-amino-7-(6-cyanopyridin-3-yl)pyrrolo[2,1-f][1,2,4]triazin-5-yl)piperidin-3-yl)-5-cyclopropyl-3-(2-(dimethylamino)ethoxy) thiophene-2-carboxamide] — 1.5-fold lower, 2 nM
- CN(C)CCOc1cc(C2CC2)sc1C(=O)N[C@@H]1CCCN(c2cc(-c3ccc(C(N)=O)c(F)c3)n3ncnc(N)c23)C1 [Example 373, (R)-N-(1-(4-amino-7-(4-carbamoyl-3-fluorophenyl)pyrrolo[2,1-f][1,2,4]triazin-5-yl)piperidin-3-yl)-5-cyclopropyl-3-(2-(dimethylamino)ethoxy) thiophene-2-carboxamide] — 1.5-fold lower, 2 nM
- CN(C)CCOc1cc(C2CC2)sc1C(=O)N[C@@H]1CCCN(c2cc(-c3cncnc3)n3ncnc(N)c23)C1 [Example 374, (R)-N-(1-(4-amino-7-(pyrimidin-5-yl)pyrrolo[2,1-f][1,2,4]triazin-5-yl)piperidin-3-yl)-5-cyclopropyl-3-(2-(dimethylamino)ethoxy) thiophene-2-carboxamide] — 37-fold higher, 111 nM
- CN(C)CCOc1cc(C2CC2)sc1C(=O)N[C@@H]1CCCN(c2cc(-c3ccc(=O)n(CC(F)F)c3)n3ncnc(N)c23)C1 [Example 375, (R)-N-(1-(4-amino-7-(1-(2,2-difluoroethyl)-6-oxo-1,6-dihydropyridin-3-yl)pyrrolo[2,1-f] [1,2,4]triazin-5-yl)piperidin-3-yl)-5-cyclopropyl-3-(2-(dimethylamino)ethoxy)thiophene-2-carboxamide] — 7-fold higher, 21 nM
- CC(=O)N1CC=C(c2cc(N3CCC[C@@H](NC(=O)c4sc(C5CC5)cc4OC4CCN(C)CC4)C3)c3c(N)ncnn23)C1 [Example 376, (R)—N-(1-(7-(1-acetyl-2,5-dihydro-1H-pyrrol-3-yl)-4-aminopyrrolo[2,1-f][1,2,4]triazin-5-yl)piperidin-3-yl)-5-cyclopropyl-3-((1-methylpiperidin-4-yl)oxy)thiophene-2-carboxamide] — 2.3-fold higher, 7 nM
- CC(=O)N1CC=C(c2cc(N3CCC[C@@H](NC(=O)c4sc(C5CC5)cc4OC4CCNCC4)C3)c3c(N)ncnn23)C1 [Example 376E, (R)—N-(1-(7-(1-acetyl-2,5-dihydro-1H-pyrrol-3-yl)-4-aminopyrrolo[2,1-f][1,2,4]triazin-5-yl)piperidin-3-yl)-5-cyclopropyl-3-(piperidin-4-yloxy)thiophene-2-carboxamide] — the same, 3 nM
- CC(=O)N1CC=C(c2cc(N3CCC[C@@H](NC(=O)c4sc(C5CC5)cc4OC4CCN(C(C)C)CC4)C3)c3c(N)ncnn23)C1 [Example 377, (R)-N-(1-(7-(1-acetyl-2,5-dihydro-1H-pyrrol-3-yl)-4-aminopyrrolo[2,1-f][1,2,4]triazin-5-yl)piperidin-3-yl)-5-cyclopropyl-3-((1-isopropylpiperidin-4-yl)oxy)thiophene-2-carboxamide] — 12-fold higher, 35 nM
- CC(=O)N1CC=C(c2cc(N3CCC[C@@H](NC(=O)c4sc(C5CC5)cc4OC4CCN(C5CC5)CC4)C3)c3c(N)ncnn23)C1 [Example 378, (R)-N-(1-(7-(1-acetyl-2,5-dihydro-1H-pyrrol-3-yl)-4-aminopyrrolo[2,1-f][1,2,4]triazin-5-yl)piperidin-3-yl)-5-cyclopropyl-3-((1-cyclopropylpiperidin-4-yl)oxy)thiophene-2-carboxamide] — 14-fold higher, 43 nM
- COC(=O)N1CC=C(c2cc(N3CCC[C@@H](NC(=O)c4sc(C5CC5)cc4OC4CCNCC4)C3)c3c(N)ncnn23)C1 [Example 379, Methyl (R)-3-(4-amino-5-(3-(5-cyclopropyl-3-(piperidin-4-yloxy)thiophene-2-carboxamido)piperidin-1-yl)pyrrolo[2,1-f][1,2,4]triazin-7-yl)-2,5-dihydro-1H-pyrrole-1-carboxylate] — the same, 3 nM
- NC(=O)c1ccc(-c2cc(N3CCC[C@@H](NC(=O)c4sc(C5CC5)cc4OC4CCNCC4)C3)c3c(N)ncnn23)cc1F [Example 380, (R)-N-(1-(4-amino-7-(4-carbamoyl-3-fluorophenyl)pyrrolo[2,1-f][1,2,4]triazin-5-yl)piperidin-3-yl)-5-cyclopropyl-3-(piperidin-4-yloxy)thiophene-2-carboxamide] — 3-fold lower, 1 nM
- CN1CCC(Oc2cc(C3CC3)sc2C(=O)N[C@@H]2CCCN(c3cc(-c4ccc(C#N)nc4)n4ncnc(N)c34)C2)CC1 [Example 381, (R)-N-(1-(4-amino-7-(6-cyanopyridin-3-yl)pyrrolo[2,1-f][1,2,4]triazin-5-yl)piperidin-3-yl)-5-cyclopropyl-3-((1-methylpiperidin-4-yl)oxy)thiophene-2-carboxamide] — 2-fold higher, 6 nM
- CC(C)N1CCC(Oc2cc(C3CC3)sc2C(=O)N[C@@H]2CCCN(c3cc(-c4ccc(C#N)nc4)n4ncnc(N)c34)C2)CC1 [Example 382, (R)-N-(1-(4-amino-7-(6-cyanopyridin-3-yl)pyrrolo[2,1-f][1,2,4]triazin-5-yl)piperidin-3-yl)-5-cyclopropyl-3-((1-isopropylpiperidin-4-yl)oxy)thiophene-2-carboxamide] — 1.7-fold higher, 5 nM
- N#Cc1ccc(-c2cc(N3CCC[C@@H](NC(=O)c4sc(Cl)cc4OC4CN(CC(F)F)C4)C3)c3c(N)ncnn23)cn1 [Example 383, (R)—N-(1-(4-amino-7-(6-cyanopyridin-3-yl)pyrrolo[2,1-f][1,2,4]triazin-5-yl)piperidin-3-yl)-5-chloro-3-((1-(2,2-difluoroethyl)azetidin-3-yl)oxy)thiophene-2-carboxamide] — 8.3-fold higher, 25 nM
- CC(=O)N1CC=C(c2cc(N3CCC[C@@H](NC(=O)c4sc(Cl)cc4OC4CN(CC(F)F)C4)C3)c3c(N)ncnn23)C1 [Example 384, (R)-N-(1-(7-(1-acetyl-2,5-dihydro-1H-pyrrol-3-yl)-4-aminopyrrolo[2,1-f][1,2,4]triazin-5-yl)piperidin-3-yl)-5-chloro-3-((1-(2,2-difluoroethyl)azetidin-3-yl)oxy)thiophene-2-carboxamide] — 19-fold higher, 57 nM
- COC(=O)N1CC=C(c2cc(N3CCC[C@@H](NC(=O)c4sc(Cl)cc4OC4CN(CC(F)F)C4)C3)c3c(N)ncnn23)C1 [Example 385, Methyl (R)-3-(4-amino-5-(3-(5-chloro-3-((1-(2,2-difluoroethyl)azetidin-3-yl)oxy)thiophene-2-carboxamido)piperidin-1-yl)pyrrolo[2,1-f][1,2,4]triazin-7-yl)-2,5-dihydro-1H-pyrrole-1-carboxylate] — 7-fold higher, 21 nM
- NC(=O)c1ccc(-c2cc(N3CCC[C@@H](NC(=O)c4sc(Cl)cc4OC4CN(CC(F)F)C4)C3)c3c(N)ncnn23)cc1F [Example 386, (R)-N-(1-(4-amino-7-(4-carbamoyl-3-fluorophenyl)pyrrolo[2,1-f][1,2,4]triazin-5-yl)piperidin-3-vl)-5-chloro-3-((1-(2,2-difluoroethyl)azetidin-3-yl)oxy)thiophene-2-carboxamide] — 2-fold higher, 6 nM
- Nc1ncnn2c(-c3ccc(=O)n(CC(F)F)c3)cc(N3CCC[C@@H](NC(=O)c4sc(Cl)cc4OC4CN(CC(F)F)C4)C3)c12 [Example 387, (R)-N-(1-(4-amino-7-(1-(2,2-difluoroethyl)-6-oxo-1,6-dihydropyridin-3-yl)pyrrolo[2,1-f][1,2,4]triazin-5-yl)piperidin-3-yl)-5-chloro-3-((1-(2,2-difluoroethyl)azetidin-3-yl)oxy)thiophene-2-carboxamide] — 9.7-fold higher, 29 nM
- NC(=O)c1ccc(-c2cc(N3CCC[C@@H](NC(=O)c4sc(C5CC5)cc4OC4CNC4)C3)c3c(N)ncnn23)cc1F [Example 389, (R)—N-(1-(4-amino-7-(4-carbamoyl-3-fluorophenyl)pyrrolo[2,1-f][1,2,4]triazin-5-yl)piperidin-3-yl)-3-(azetidin-3-yloxy)-5-cyclopropylthiophene-2-carboxamide] — 7.5-fold lower, 0.4 nM
